Laboratory results from patent US20100290997A1, “Imaging Agents and Methods” (priority 2006, published 2010).
Where a SMILES comes first, the peptide text is derived from it.

Tests used:
[1] = Determination of relaxivity (T1, T2) at 4.7 Tesla; format: physicochemical; conditions: 4.7T MRI experimental scanner
Protocol: (§1) Solutions of PG-Benz-DTPA-Gd-IR783 were prepared in water at gadolinium concentrations of 0.005, 0.01, 0.02, 0.04, 0.08, and 0.16 mM. Spin lattice (T1) and spin-spin (T2) relaxivities were measured at 4.7 Tesla on 4.7T Bruker Biospec 47/40USR (City, State) using inversion recovery and mutiecho T2-weight pulse sequences. Relaxivities (R1 or R2 in mM^−1s^−1) were obtained from linear least square determination of the slopes of 1/T1 vs [Gd] or 1/T2 vs [Gd] plots.
as §1, with “PG-DTPA-Gd-NIR813” for “PG-Benz-DTPA-Gd-IR783”, “(Bruker Biospin Corp., Billerica, Mass.)” for “47/40USR (City, State)”

[2] = Fluorescence emission spectra; format: physicochemical; conditions: methanol solution; for emission wavelength (maximum): excited at 766 nm
Protocol: Analytical high-performance liquid chromatography (HPLC) was carried out on an Agilent 1100 system (Wilmington, Del.) equipped with a Vydac peptide and protein analytic C-18 column (Anaheim, Calif.). Sample was eluted with water and acetonitrile containing 0.1% TFA varying from 10% to 80% over 30 min. Fluorescence intensity was measured by Spex Fluorolog spectrofluorimeter (Jobin Yvon Inc, Edison, N.J.).
The fluorescence emission spectra of the synthesized contrast agent was obtained using a Spex Fluorolog spectrofluorimeter (Horiba Yvon Jobin, N.J.).

cathepsin B = target: T1, cathepsin B (Homo sapiens, UniProt P07858); experiment: Inhibition of biodegradation of L-PG-NIR813 in presence of CB inhibitor II; format: biochemical; conditions: 0.2 unit/mL cathepsin B, 10 μM eq. NIR813
T1 construct: purchased Sigma-Aldrich (St. Louis, Mo.)
Protocol: L-PG-NIR813 with different loading 8.3% and 10%, CB and CB inhibitor II were dissolved in assay buffer respectively. The reaction mixture (100 μL) in each well was composed of 10 μM L-PG-NIR813 probe and 0.2 units/mL CB. The CB inhibitor II was serially diluted in the assay buffer to obtain concentrations ranging from 240 μM to 77 nM. The microwell assay plate was incubated at 37° C. for 24 hr. At predetermined time intervals, the inhibition of biodegradation was examined using Li-Cor Odyssey imager.

T1 relaxivity (r1) [1]	Stokes shift [2]	excitation wavelength [2]	emission wavelength (maximum) [2]	SMILES	inhibition of PG-NIR813 degradation by CB (cathepsin B)
4.8 mmol⁻¹ s⁻¹				O=C([O-])CN(CCN(CC(=O)[O-])CC(=O)O)CCN(CC(=O)[O-])CC(=O)O.[Gd+3] [DTPA-Gd]	
	47 nm	766 nm	813 nm	CC1(C)C(/C=C/C2=C(Sc3ccc(C(=O)NCCCCCN)cc3)C(=C/C=C3/N(CCCCS(=O)(=O)O)c4ccccc4C3(C)C)/CCC2)=[N+](CCCCS(=O)(=O)O)c2ccccc21 [NIR813, IR-783-S-Ph-CONH(CH2)5NH2]	
	32 nm	766 nm	798 nm	CC1(C)C(=CC=C2CCCC(C=CC3=[N+](CCCCS(=O)(=O)[O-])c4ccccc4C3(C)C)=C2Cl)N(CCCCS(=O)(=O)[O-])c2ccccc21.[Na+] [IR783]	
				CC(=O)N[C@@H](CC(C)C)C(=O)N[C@H](C(=O)N[C@H](C=O)CCCCN)C(C)C [CB inhibitor, Ac-LVK-CHO] (Ac-Leu-Val-Lys-aldehyde)	inhibited by CB inhibitor in a dose-dependent manner
